The target of the assay is T1, catechol-O-methyltransferase (COMT) (Homo sapiens, UniProt P21964).
T1 construct: M51A variant) was expressed in HEK 293F cells
T1 sequence (P21964 52-271 limits assumed): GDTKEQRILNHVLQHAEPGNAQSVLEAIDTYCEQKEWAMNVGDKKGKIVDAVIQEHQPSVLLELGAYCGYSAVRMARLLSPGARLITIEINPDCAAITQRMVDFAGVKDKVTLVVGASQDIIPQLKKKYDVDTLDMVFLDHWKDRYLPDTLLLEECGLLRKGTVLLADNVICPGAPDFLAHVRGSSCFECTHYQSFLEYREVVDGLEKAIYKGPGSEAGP
Kind of assay: COMT inhibition assay (HTRF, production of S-adenosyl homocysteine). In kind it is biochemical. The following applies: recombinant human COMT, HTRF SAH production; MB-COMT or S-COMT not stated for Table 1. In outline: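 SAH formed from SAM (20 μM) measured by HTRF with SAH standard curve; pIC50 from 4-parameter fit. MB-COMT (M51A, HEK293F membranes, 62 ng/well): 1.5 μM dopamine, 40 min, 37° C.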

The values that follow come from patent US10035799B2, “COMT inhibiting methods and compositions” (Lieber Institute for Brain Development, priority 2015, dated 2018).

Take `O=C(c1ccccc1)C1CCN(S(=O)(=O)c2ccc(O)c3ncccc23)CC1` [Example 85, [1-[(8-hydroxy-5-quinolyl)sulfonyl]-4-piperidyl]-phenyl-methanone]: the “Activity range (pIC50, COMT inhibition)” value was “+++ (a pIC50 of above about 7)”. The entry for `O=S(=O)(c1cc(Cl)c(O)c2ncccc12)N1CCN(Cc2ccc(F)cc2)CC1` [Example 112, 7-chloro-5-[4-[(4-fluorophenyl)methyl]piperazin-1-yl]sulfonyl-quinolin-8-ol] is “+ (a pIC50 of from about 4.5 to 6)”. As for `CCN(Cc1ccncc1)S(=O)(=O)c1ccc(O)c2ncccc12` [Example 66, N-ethyl-8-hydroxy-N-(4-pyridylmethyl)quinoline-5-sulfonamide], the “Activity range (pIC50, COMT inhibition)” value is given as “++ (a pIC50 of from about great than 6 to 7)”. The entry for `Cc1cc(S(=O)(=O)N2CCCC2)c2cccnc2c1O` [Example 111, 7-methyl-5-pyrrolidin-1-ylsulfonyl-quinolin-8-ol] is “+++ (a pIC50 of above about 7)”; for `CCN(CC)S(=O)(=O)c1ccc(O)c2ncccc12` [Example 68, N,N-diethyl-8-hydroxy-quinoline-5-sulfonamide] it is “++ (a pIC50 of from about great than 6 to 7)”; for `CC(C)C1CCCN1S(=O)(=O)c1ccc(O)c2ncccc12` (stereo not drawn) [Example 78, 5-(2-isopropylpyrrolidin-1-yl)sulfonylquinolin-8-ol] it is “+++ (a pIC50 of above about 7)”. The entry for `O=S(=O)(c1ccc(O)c2ncccc12)N1CCc2cccnc2C1` [Example 67, 5-(6,8-dihydro-5H-1,7-naphthyridin-7-ylsulfonyl)quinolin-8-ol] is “+++ (a pIC50 of above about 7)”; for `Cc1cc(C)cc(S(=O)(=O)c2ccc(O)c3ncccc23)c1` [Example 4, 5-(3,5-dimethylphenyl)sulfonylquinolin-8-ol] it is “+++ (a pIC50 of above about 7)”. Take `Cc1cccc(N2CCC(S(=O)(=O)c3ccc(O)c4ncccc34)CC2)c1C` [Example 39, 5-[[1-(2,3-dimethylphenyl)-4-piperidyl]sulfonyl]quinolin-8-ol]: the “Activity range (pIC50, COMT inhibition)” value is listed as “+++ (a pIC50 of above about 7)”.

For `O=S(=O)(c1cccc(Cl)c1)c1ccc(O)c2ncccc12` [Example 14, 5-(3-chlorophenyl)sulfonylquinolin-8-ol], the “Activity range (pIC50, COMT inhibition)” value was “+++ (a pIC50 of above about 7)”. The entry for `C[C@H](c1ccccc1)N(C)S(=O)(=O)c1ccc(O)c2ncccc12` [Example 50, 8-hydroxy-N-methyl-N-[(1R)-1-phenylethyl]quinoline-5-sulfonamide] is “+++ (a pIC50 of above about 7)”; for `O=S(=O)(c1ccc(C(F)(F)F)cc1)c1ccc(O)c2ncccc12` [Example 11, 5-[4-(trifluoromethyl)phenyl]sulfonylquinolin-8-ol] it is “+++ (a pIC50 of above about 7)”; for `Cc1ccc(S(=O)(=O)c2cc(Br)c(O)c3ncccc23)cc1` [Example 108, 7-bromo-5-(p-tolylsulfonyl)quinolin-8-ol] it is “++ (a pIC50 of from about great than 6 to 7)”.

As for `O=S(=O)(c1ccc(O)c2ncccc12)N1CCCC(c2ccccc2)C1` (stereo not drawn) [Example 102, 5-[(3-phenyl-1-piperidyl)sulfonyl]quinolin-8-ol], the “Activity range (pIC50, COMT inhibition)” value is “+++ (a pIC50 of above about 7)”. To `O=S(=O)(c1ccc(F)cc1)c1ccc(O)c2ncccc12` [Example 2, 5-(4-fluorophenyl)sulfonylquinolin-8-ol] belongs “+++ (a pIC50 of above about 7)”.

For `O=S(=O)(c1ccc(O)c2ncccc12)N1CCNCC1` [Example 104, 5-piperazin-1-ylsulfonylquinolin-8-ol], the “Activity range (pIC50, COMT inhibition)” value is reported as “+ (a pIC50 of from about 4.5 to 6)”.

Regarding `O=S(=O)(c1ccc2ccccc2c1)c1ccc(O)c2ncccc12` [Example 12, 5-(2-naphthylsulfonyl)quinolin-8-ol], the “Activity range (pIC50, COMT inhibition)” value is recorded as “+++ (a pIC50 of above about 7)”.

Take `CN(C)CCN(Cc1ccccc1)S(=O)(=O)c1ccc(O)c2ncccc12` [Example 57, N-benzyl-N-(2-dimethylaminoethyl)-8-hydroxy-quinoline-5-sulfonamide]: the “Activity range (pIC50, COMT inhibition)” value is recorded as “++ (a pIC50 of from about great than 6 to 7)”. With `O=S(=O)(c1ccc(O)c2ncccc12)N1CC2CCC(CC2)C1` [Example 91, 5-(3-azabicyclo[3.2.2]nonan-3-ylsulfonyl)quinolin-8-ol], the “Activity range (pIC50, COMT inhibition)” value was “+++ (a pIC50 of above about 7)”. Regarding `C[C@H](c1ccccc1)N(C)S(=O)(=O)c1cc(Cl)c(O)c2ncccc12` [Example 117, 7-chloro-8-hydroxy-N-methyl-N-[(1R)-1-phenylethyl]quinoline-5-sulfonamide], the “Activity range (pIC50, COMT inhibition)” value was “++ (a pIC50 of from about great than 6 to 7)”. The entry for `Cc1cccc(S(=O)(=O)c2ccc(O)c3ncccc23)c1` [Example 7, 5-(m-tolylsulfonyl)quinolin-8-ol] is “+++ (a pIC50 of above about 7)”; for `Cc1ccc(S(=O)(=O)c2ccc(O)c3ncccc23)cc1C` [Example 3, 5-(3,4-dimethylphenyl)sulfonylquinolin-8-ol] it is “+++ (a pIC50 of above about 7)”. Take `O=S(=O)(c1ccc(O)c2ncccc12)N1CCN(c2ccccc2-c2ccccc2)CC1` [Example 92, 5-[4-(2-phenylphenyl)piperazin-1-yl]sulfonylquinolin-8-ol]: the “Activity range (pIC50, COMT inhibition)” value was “++ (a pIC50 of from about great than 6 to 7)”. Regarding `O=S(=O)(c1cccc(-c2cccc3[nH]ncc23)c1)c1ccc(O)c2ncccc12` [Example 26, 5-[3-(1H-indazol-4-yl)phenyl]sulfonylquinolin-8-ol], the “Activity range (pIC50, COMT inhibition)” value is “+++ (a pIC50 of above about 7)”.

Turning to `O=S(=O)(c1ccc(O)c2ncccc12)C1CCNCC1` [Example 34, 5-(4-piperidylsulfonyl)quinolin-8-ol], the “Activity range (pIC50, COMT inhibition)” value is “++ (a pIC50 of from about great than 6 to 7)”. As to `O=S(=O)(c1cc(Cl)cc(Cl)c1)c1ccc(O)c2ncccc12` [Example 8, 5-(3,5-dichlorophenyl)sulfonylquinolin-8-ol], the “Activity range (pIC50, COMT inhibition)” value is reported as “++ (a pIC50 of from about great than 6 to 7)”. To `O=S(=O)(c1ccc(O)c2ncccc12)N1CCC(c2ccccc2)CC1` [Example 73, 5-[(4-phenyl-1-piperidyl)sulfonyl]quinolin-8-ol] belongs “+++ (a pIC50 of above about 7)”; to `O=S(=O)(c1ccc(O)c2ncccc12)N1CCN(C(c2ccc(F)cc2)c2ccc(F)cc2)CC1` [Example 95, 5-[4-[bis(4-fluorophenyl)methyl]piperazin-1-yl]sulfonylquinolin-8-ol], “+ (a pIC50 of from about 4.5 to 6)”; to `O=S(=O)(c1ccc(O)c2ncccc12)N1CCCC1c1ccccc1` (stereo not drawn) [Example 58, 5-(2-phenylpyrrolidin-1-yl)sulfonylquinolin-8-ol], “+++ (a pIC50 of above about 7)”.

Consider `CC(C)CC1CCCN1S(=O)(=O)c1ccc(O)c2ncccc12` (stereo not drawn) [Example 82, 5-(2-isobutylpyrrolidin-1-yl)sulfonylquinolin-8-ol], for which the “Activity range (pIC50, COMT inhibition)” value is “+++ (a pIC50 of above about 7)”. To `Cc1ccc(CCS(=O)(=O)c2ccc(O)c3ncccc23)cc1` [Example 29, 5-[2-(p-tolyl)ethylsulfonyl]quinolin-8-ol] belongs “+++ (a pIC50 of above about 7)”. To `O=S(=O)(c1ccc(Cl)c(Cl)c1)c1ccc(O)c2ncccc12` [Example 15, 5-(3,4-dichlorophenyl)sulfonylquinolin-8-ol] belongs “++ (a pIC50 of from about great than 6 to 7)”; to `CN(Cc1ccccc1F)S(=O)(=O)c1ccc(O)c2ncccc12` [Example 52, N-[(2-fluorophenyl)methyl]-8-hydroxy-N-methyl-quinoline-5-sulfonamide], “+++ (a pIC50 of above about 7)”; to `O=S(=O)(c1ccc(O)c2ncccc12)N1CCN(c2ccccc2)CC1` [Example 41, 5-(4-phenylpiperazin-1-yl)sulfonylquinolin-8-ol], “++ (a pIC50 of from about great than 6 to 7)”. As for `Cc1ccc(S(=O)(=O)c2cc(Cl)c(O)c3ncccc23)cc1` [Example 109, 7-chloro-5-(p-tolylsulfonyl)quinolin-8-ol], the “Activity range (pIC50, COMT inhibition)” value is reported as “+++ (a pIC50 of above about 7)”. The entry for `O=S(=O)(c1ccc(O)c2ncccc12)N1CCc2ccccc2C1` [Example 40, 5-(3,4-dihydro-1H-isoquinolin-2-ylsulfonyl)quinolin-8-ol] is “+++ (a pIC50 of above about 7)”; for `Cc1cccc(N2CCN(S(=O)(=O)c3ccc(O)c4ncccc34)CC2)c1C` [Example 100, 5-[4-(2,3-dimethylphenyl)piperazin-1-yl]sulfonylquinolin-8-ol] it is “++ (a pIC50 of from about great than 6 to 7)”. The entry for `O=S(=O)(c1ccc(O)c2ncccc12)N1CCOCC1` [Example 64, 5-(4-morpholin-1-yl)sulfonylquinolin-8-ol] is “++ (a pIC50 of from about great than 6 to 7)”. For the compound `COC(=O)N1CCN(S(=O)(=O)c2ccc(O)c3ncccc23)CC1` [Example 88, methyl 4-[(8-hydroxy-5-quinolyl)sulfonyl]piperazine-1-carboxylate], the “Activity range (pIC50, COMT inhibition)” value is recorded as “+++ (a pIC50 of above about 7)”.
